Results published in ChEMBL document CHEMBL1955831, “Inhibitors of human histone deacetylase with potent activity against the African trypanosome Trypanosoma brucei” (Bioorg Med Chem Lett, 2012).
Calls of active or inactive are those of the source. The rule behind the calls is not given here.

Experiments:
[1] = molecular target: T1, Histone deacetylase 8 (Homo sapiens) (UniProt Q9BY41); assay: Inhibition of human recombinant HDAC8 expressed using baculovirus expression system using Flour- De-Lys as substrate after 3 hrs by fluorescence analysis
T1 sequence (whole entry): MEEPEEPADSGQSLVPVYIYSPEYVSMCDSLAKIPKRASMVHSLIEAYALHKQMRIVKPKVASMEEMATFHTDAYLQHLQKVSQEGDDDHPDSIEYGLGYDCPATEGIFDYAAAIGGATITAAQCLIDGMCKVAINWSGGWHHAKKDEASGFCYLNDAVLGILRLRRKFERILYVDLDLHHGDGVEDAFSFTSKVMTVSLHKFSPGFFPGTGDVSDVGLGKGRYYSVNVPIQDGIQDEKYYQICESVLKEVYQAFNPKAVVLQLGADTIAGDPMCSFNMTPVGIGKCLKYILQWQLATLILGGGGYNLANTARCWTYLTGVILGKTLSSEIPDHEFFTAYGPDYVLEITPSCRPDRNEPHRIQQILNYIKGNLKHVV

[2] = molecular target: Histone deacetylase 2 (Homo sapiens) (UniProt Q92769); assay: Inhibition of human recombinant HDAC2 expressed using baculovirus expression system using Flour- De-Lys as substrate after 3 hrs by fluorescence analysis
Histone deacetylase 2 (Homo sapiens), sequence (Q92769 whole entry): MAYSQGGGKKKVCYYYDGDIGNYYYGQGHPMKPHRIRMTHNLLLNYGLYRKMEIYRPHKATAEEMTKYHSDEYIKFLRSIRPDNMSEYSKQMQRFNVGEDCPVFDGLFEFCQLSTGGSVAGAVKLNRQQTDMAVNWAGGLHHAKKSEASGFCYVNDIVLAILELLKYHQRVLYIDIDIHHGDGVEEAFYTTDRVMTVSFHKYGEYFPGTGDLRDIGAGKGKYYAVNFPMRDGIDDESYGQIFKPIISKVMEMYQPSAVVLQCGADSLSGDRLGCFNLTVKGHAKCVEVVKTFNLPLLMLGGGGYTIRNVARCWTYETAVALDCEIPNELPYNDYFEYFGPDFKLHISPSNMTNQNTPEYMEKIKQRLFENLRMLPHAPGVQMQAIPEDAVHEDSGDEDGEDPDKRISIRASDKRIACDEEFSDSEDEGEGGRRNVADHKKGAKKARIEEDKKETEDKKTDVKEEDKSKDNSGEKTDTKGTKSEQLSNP

[3] = molecular target: Histone deacetylase 9 (Homo sapiens) (UniProt Q9UKV0); assay: Inhibition of human recombinant HDAC9 expressed using baculovirus expression system using Flour- De-Lys as substrate after 3 hrs by fluorescence analysis
Histone deacetylase 9 (Homo sapiens), sequence (Q9UKV0 whole entry): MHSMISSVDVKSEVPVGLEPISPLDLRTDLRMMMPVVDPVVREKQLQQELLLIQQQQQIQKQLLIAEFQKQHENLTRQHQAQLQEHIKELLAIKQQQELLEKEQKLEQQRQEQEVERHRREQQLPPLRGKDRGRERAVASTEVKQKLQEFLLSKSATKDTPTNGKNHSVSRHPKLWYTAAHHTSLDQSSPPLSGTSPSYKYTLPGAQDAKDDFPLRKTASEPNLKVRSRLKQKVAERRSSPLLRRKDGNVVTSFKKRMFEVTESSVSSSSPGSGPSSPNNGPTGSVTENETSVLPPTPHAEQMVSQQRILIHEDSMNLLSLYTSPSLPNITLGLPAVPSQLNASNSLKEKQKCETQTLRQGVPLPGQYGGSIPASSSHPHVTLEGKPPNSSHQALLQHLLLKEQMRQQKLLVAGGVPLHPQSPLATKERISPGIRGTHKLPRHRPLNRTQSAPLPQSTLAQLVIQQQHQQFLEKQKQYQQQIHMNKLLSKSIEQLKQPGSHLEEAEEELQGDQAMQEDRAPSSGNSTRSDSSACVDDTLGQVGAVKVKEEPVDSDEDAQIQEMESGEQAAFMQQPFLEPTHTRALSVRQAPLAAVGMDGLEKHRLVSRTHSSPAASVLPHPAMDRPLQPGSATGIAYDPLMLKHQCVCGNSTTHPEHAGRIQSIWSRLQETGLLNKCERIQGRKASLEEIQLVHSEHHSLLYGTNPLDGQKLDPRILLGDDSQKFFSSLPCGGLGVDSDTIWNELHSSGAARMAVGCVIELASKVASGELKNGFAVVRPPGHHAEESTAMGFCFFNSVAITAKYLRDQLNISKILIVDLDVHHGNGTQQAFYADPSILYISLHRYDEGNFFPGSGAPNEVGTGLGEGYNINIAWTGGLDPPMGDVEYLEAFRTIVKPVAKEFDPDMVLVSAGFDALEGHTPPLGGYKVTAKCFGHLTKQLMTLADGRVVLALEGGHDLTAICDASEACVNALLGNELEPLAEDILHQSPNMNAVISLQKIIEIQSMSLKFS

[4] = molecular target: Histone deacetylase 4 (Homo sapiens) (UniProt P56524); assay: Inhibition of human recombinant HDAC4 expressed using baculovirus expression system using Flour- De-Lys as substrate after 3 hrs by fluorescence analysis
Histone deacetylase 4 (Homo sapiens), sequence (P56524 whole entry): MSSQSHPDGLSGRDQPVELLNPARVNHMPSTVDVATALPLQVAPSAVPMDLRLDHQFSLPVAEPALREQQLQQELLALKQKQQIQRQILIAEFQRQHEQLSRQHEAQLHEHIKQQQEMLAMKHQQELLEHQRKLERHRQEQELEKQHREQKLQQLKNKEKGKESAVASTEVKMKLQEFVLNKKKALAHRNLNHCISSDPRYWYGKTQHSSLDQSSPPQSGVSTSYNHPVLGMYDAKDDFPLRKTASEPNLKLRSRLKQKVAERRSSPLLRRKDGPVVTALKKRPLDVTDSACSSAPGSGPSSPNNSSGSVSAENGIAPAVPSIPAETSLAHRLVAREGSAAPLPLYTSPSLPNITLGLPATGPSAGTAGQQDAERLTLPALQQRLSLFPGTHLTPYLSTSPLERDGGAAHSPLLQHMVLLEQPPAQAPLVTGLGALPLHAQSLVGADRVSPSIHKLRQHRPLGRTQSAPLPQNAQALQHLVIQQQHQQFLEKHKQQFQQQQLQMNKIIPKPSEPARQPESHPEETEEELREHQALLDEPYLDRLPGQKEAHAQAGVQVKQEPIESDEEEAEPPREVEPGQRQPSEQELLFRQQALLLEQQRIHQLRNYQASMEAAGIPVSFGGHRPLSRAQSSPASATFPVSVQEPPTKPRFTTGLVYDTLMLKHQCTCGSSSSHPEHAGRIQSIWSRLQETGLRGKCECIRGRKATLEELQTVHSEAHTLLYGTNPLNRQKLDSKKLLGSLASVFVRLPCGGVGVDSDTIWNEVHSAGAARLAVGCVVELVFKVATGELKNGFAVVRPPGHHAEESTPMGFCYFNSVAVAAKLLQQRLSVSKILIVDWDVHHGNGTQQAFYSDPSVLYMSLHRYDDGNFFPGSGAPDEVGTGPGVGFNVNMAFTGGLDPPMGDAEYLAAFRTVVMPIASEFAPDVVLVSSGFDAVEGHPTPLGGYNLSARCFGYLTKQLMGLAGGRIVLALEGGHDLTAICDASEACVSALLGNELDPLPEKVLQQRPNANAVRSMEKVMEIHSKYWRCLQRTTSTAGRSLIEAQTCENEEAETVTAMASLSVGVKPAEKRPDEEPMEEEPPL

[5] = molecular target: Histone deacetylase 3 (Homo sapiens) (UniProt O15379); assay: Inhibition of human recombinant HDAC3 expressed using baculovirus expression system using Flour- De-Lys as substrate after 3 hrs by fluorescence analysis
Histone deacetylase 3 (Homo sapiens), sequence (O15379 whole entry): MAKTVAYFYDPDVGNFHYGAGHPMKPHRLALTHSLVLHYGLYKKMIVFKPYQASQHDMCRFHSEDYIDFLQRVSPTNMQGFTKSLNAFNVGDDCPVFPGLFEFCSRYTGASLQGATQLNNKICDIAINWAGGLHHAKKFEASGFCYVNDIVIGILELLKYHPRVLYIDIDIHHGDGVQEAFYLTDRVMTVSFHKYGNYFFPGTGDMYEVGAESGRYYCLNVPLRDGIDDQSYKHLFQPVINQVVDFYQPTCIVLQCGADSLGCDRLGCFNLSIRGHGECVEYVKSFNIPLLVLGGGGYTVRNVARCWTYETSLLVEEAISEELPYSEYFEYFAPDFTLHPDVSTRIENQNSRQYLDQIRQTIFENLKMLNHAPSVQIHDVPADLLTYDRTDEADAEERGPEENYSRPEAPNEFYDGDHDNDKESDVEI

Trypanosoma brucei = assay: Antitrypanosomal activity against bloodstream Trypanosoma brucei 427 assessed as cell death at 2 ug/ml within 4 hrs by Giemsa staining-based DMRB microscopic analysis

`O=C(/C=C/c1cccc(S(=O)(=O)N2CCN(c3ccccn3)CC2)c1)NO` showed an ED50 [1] of 581 nM.

With `COc1ccc(NS(=O)(=O)c2cccc(/C=C/C(=O)NO)c2)cc1` the ED50 [2] was 105 nM.

`COc1ccc(N2CCN(S(=O)(=O)c3cccc(/C=C/C(=O)NO)c3)CC2)cc1` gave an ED50 [3] of 1180 nM.

Compound `O=C(/C=C/c1cccc(S(=O)(=O)Nc2cccc(F)c2)c1)NO` has an ED50 [4] of 65 nM.

In the case of `O=C(/C=C/c1nc2ccccc2o1)NO`, the ED50 [5] is reported as 97 nM.

For `COc1ccccc1N1CCN(S(=O)(=O)c2cccc(/C=C/C(=O)NO)c2)CC1`, the ED50 [3] was 145 nM.

`O=C(/C=C/c1cccc(S(=O)(=O)N2CCN(c3ncccn3)CC2)c1)NO` was tested, and the Activity (Trypanosoma brucei) was “Active”.
